Source: patent US7202267B2, “Acyloxypyrrolidine derivatives, preparation thereof and application thereof in therapeutic” (Sanofi-aventis, priority 2002, dated 2007)

Legend:
human V1a receptors = target: T1, human V1a receptors (Homo sapiens, UniProt P37288); assay: Displacement of [3H]-AVP binding to human V1a receptors; conditions: cellular or membrane preparations
T1 construct: host or cells: cellular or membrane preparations
Method: The affinity of the compounds of formula (I) according to the invention, for V1a receptors for arginine-vasopressin, was determined in vitro using the method described by M. THIBONNIER et al., J. Biol. Chem., 1994, 269, 3304–3310. This method consists in studying, in vitro, the displacement of […] arginine-vasopressin ([^3H]-AVP) to V1a receptors present on cellular or membrane preparations bearing rat or human V1a receptors.

human V1b receptors = target: T2, human V1b receptors (Homo sapiens, UniProt P47901); assay: Displacement of [3H]-AVP binding to human V1b receptors; conditions: cellular or adenohypophyseal membrane preparations
T2 construct: host or cells: cellular or adenohypophyseal membrane preparations
T2 sequence (P47901 1-424): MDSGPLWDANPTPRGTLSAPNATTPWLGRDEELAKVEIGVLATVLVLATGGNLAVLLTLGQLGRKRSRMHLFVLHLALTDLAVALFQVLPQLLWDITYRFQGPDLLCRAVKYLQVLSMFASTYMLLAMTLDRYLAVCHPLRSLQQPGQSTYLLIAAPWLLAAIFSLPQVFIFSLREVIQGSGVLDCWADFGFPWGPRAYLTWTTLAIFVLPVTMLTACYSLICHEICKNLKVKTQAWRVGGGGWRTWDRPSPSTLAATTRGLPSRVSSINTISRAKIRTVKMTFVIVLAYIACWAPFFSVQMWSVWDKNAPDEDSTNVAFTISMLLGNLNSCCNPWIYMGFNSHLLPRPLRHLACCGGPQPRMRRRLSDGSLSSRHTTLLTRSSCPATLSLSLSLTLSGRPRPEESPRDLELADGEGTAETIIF
Method: The affinity of the compounds of formula (I) according to the invention, for V1b receptors for arginine-vasopressin, was determined in vitro using the method described by Y. DE KEYSER et al., Febs Letters, 1994, 356, 215–220. This method consists in studying, in vitro, the displacement of […] arginine-vasopressin ([^3H]-AVP) to V1b receptors present on cellular or adenohypophyseal membrane preparations bearing rat or human V1b receptors.

T1 sequence (P37288 whole entry): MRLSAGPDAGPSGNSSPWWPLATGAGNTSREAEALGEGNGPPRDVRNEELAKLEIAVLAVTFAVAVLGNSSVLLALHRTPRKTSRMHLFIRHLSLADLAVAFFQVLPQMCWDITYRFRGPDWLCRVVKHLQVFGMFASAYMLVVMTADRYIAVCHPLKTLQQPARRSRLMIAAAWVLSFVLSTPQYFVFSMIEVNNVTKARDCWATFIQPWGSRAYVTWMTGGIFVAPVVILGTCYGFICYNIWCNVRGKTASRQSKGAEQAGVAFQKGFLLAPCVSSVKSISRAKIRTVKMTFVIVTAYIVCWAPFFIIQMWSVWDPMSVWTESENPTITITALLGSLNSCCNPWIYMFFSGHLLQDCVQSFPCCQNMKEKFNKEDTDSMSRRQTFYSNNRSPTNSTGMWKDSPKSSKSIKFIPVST

SMILES: COc1ccc(S(=O)(=O)N2C(=O)[C@@](c3ccccc3OC)(N3C[C@H](OC(C)=O)C[C@H]3C(=O)N(C)C)c3cc(Cl)ccc32)c(OC)c1 [Example 1, (3R,5S)-1-[(3R)-5-chloro-1-[(2,4-dimethoxyphenyl)sulfonyl]-3-(2-methoxyphenyl)-2-oxo-2,3-dihydro-1H-indol-3-yl]-5-[(dimethylamino)carbonyl]-3-pyrrolidinyl acetate]
- IC50 (human V1a receptors): 84 nM
- IC50 (human V1b receptors): 3.4 nM
